# Where a name gives a salt, the structure may show the parent alone.
# Columns and labels:
# [1] = system: calcineurin; test: Calcineurin phosphatase activity in cerebellar granule neurons after 4 DIV (malachite green colorimetric assay, Test A); assay type: cell-based, Wistar rat
# Description: According to Test A, phosphatase calcineurin activity is assessed in cerebellar granule neurons (CGNs) using a colorimetric assay kit based on quantification of the green complex formed between malachite green, molybdate and free phosphate released. CGNs are detached from plates, for example by scraping, rinsed in ice-cold tris buffer solution (TBS) and counted. About 10 million cells are lysed in 1 ml of the provided lysis buffer and centrifuged at 150,000×g at 4° C. for 45 min, and the supernatant may be stored at −70° C. until analysis. Prior to calcineurin activity assay, free phosphate and nucleotides are removed from cellular extract by gel filtration. To ensure the complete removal of phosphate, malachite green reagent may be added, which will turn the color green in presence of phosphate. A specific calcineurin substrate is added to phosphate-free cellular extracts and after appropriate incubation period, malachite green reagent is applied. The rapid green color formation from the reaction is measured, for example on a spectrophotometer. The developed color is proportional to the calcineurin phosphatase activity of samples. Absorbance values, read at 620 nm, may thus be transformed to percentage calcineurin activity relative to K25 control treatment (100%). Cerebellar granule cells were dissociated from the cerebellae of 7-day-old Wistar rat pups as described (Kramer et al. 2003, Mol Cell Neurosci 23:325-330). Briefly, the cerebellae were removed, rinsed in HBSS-BSA, minced, digested with 0.025% trypsin and incubated at 37° C. for 15 min. To stop the digestion, DMEM containing 10% fetal calf serum was added; then a single cell suspension was obtained through pipetting up and down the sedimented tissue. Following centrifugation, cells were counted using trypan blue exclusion test in a Burker chamber. This method is based on the ability of viable cells to exclude trypan blue due to their intact cell membranes, leaving them unstained while nonviable cells take up the dye. Cells at 3.2×10^5/cm^2 were seeded in DMEM Hepes modification supplemented with 10% fetal calf serum, 100 μg/ml pyruvate, and 100 μg/ml gentamicin on Polystyrene 12-well tissue culture plates (CELLSTAR) coated with poly-L-lysine. After 24 h, 10 μM cytosine arabinofuranoside was added to inhibit the growth of non-neuronal cells. All pharmacological interventions begun at this time in the culture medium containing 25 mM KCl (K25), which caused depolarization of granule cells and consequently activated gene expression machinery. Moreover, the viability of granule neurons was higher in this milieu and therefore provides the possibility to maintain cells for several days. Indeed, 25 mM KCl is required in the medium for CGN cultures to maintain adequate calcineurin activity and cell maturation and depolarization (Kramer et al., 2003, Mol Cell Neurosci 23:325-330; Vallano et al. 2006, Neuropharmacology 50: 651-660). Cultures received simple medium (K25 control) or medium containing a setron compound in HCl salt form (Tocris Bioscience, Bristol, UK) at concentrations of 10 nM, 100 nM or 1000 nM for 4 days in vitro (DIV). Phosphatase calcineurin activity was assessed in CGNs using a colorimetric assay kit based on quantification of the green complex formed between malachite green, molybdate and free phosphate released. CGNs were detached from plates by scraping, rinsed in ice-cold tris buffer solution (TBS) and counted. About 10 million cells are lysed in 1 ml of the provided lysis buffer and centrifuged at 150,000×g at 4° C. for 45 min, and the supernatant was stored at −70° C. until analysis. Prior to calcineurin activity assay, free phosphate and nucleotides were removed from cellular extract by gel filtration. To ensure the complete removal of phosphate, malachite green reagent was added, which will turn the color green in presence of phosphate. […]
# [2] = system: acoustic trauma induced hearing loss; test: Distortion product otoacoustic emissions (DPOAE) amplitudes after acoustic trauma; assay type: in vivo, Wistar rats
# Description: All experiments were performed using 7 week old male Wistar rats (CERJ, Le Genest, France) in accordance with the French Ministry of Agriculture regulations and European Community Council Directive no. 86/609/EEC, OJL 358. The rats were fed a standard diet ad libitum and maintained on a 12 h light-dark cycle.
# Auditory Brainstem Reponses (ABR) and Distortion Product Otoacoustic Emissions (DPOAE) were recording using a RZ6 Auditory Workstation (Tucker-Davis Technologies, Alachua, FL, USA) with animals deeply anesthetized using 90 mg/kg ketamine and 10 mg/kg xylazine and placed on a 35° C. recirculating heating pad inside a sound attenuating cubicle (Med Associates Inc., St. Albans, VT, USA) throughout the experiment.
# DPOAEs were recorded and using ER10B+ Low Noise DPOAE microphone (Etymotic Research, Inc., Elk Grove Village, IL, USA) with acoustic stimuli delivered by two calibrated MF-1 speakers in closed-field configuration (Tucker-Davis Technologies, Alachua, FL, USA). DPOAEs were recorded at fixed stimulus levels (L1=L2=70 dB SPL), with an f2/f1 ratio of 1.2. Responses were recorded at 4, 8, 16, 24 and 32 kHz.
# Animals were exposed to 121 dB octave band noise (8-16 kHz) for 2 h in groups of 4 rats, placed in individual compartments of a custom built circular cage placed on a 30 cm diameter platform rotating at 3 turns/minute (Aqila Innovation, Valbonne, France). The calibrated octave band noise generated by the RZ6 SigGen software was further amplified by a Crown D-75 amplifier in bridge mode (Crown Audio, Elkhart, IN, USA) and delivered by four Beyma CP16 compression tweeters (Acustica Beyma S. L., Moncada, Valencia, Spain) positioned 39 cm above the rotating platform, each 10 cm from the platform center.
# Animals were treated by intraperitoneal injection daily for 14 days beginning immediately after acoustic trauma induction and subsequently repeated every 24 hours. The setron compounds granisetron HCl, ondansetron HCl, tropisetron HCl and azasetron HCl (Tocris Bioscience, Bristol, UK) were delivered dissolved in saline solution (1.6 mL/kg) while Tacrolimus (Selleck Chemicals, Houston, TX, USA) was dissolved in solution composed of 10% ethanol-100%/10% Kolliphor EL/1% Tween 80/79% saline (1.0 mL/kg). Placebo treated animals received injections of 1.6 mL/kg saline following the same treatment schedule.
# Statistical analysis was performed using two-way ANOVA (Audiometry data: frequency and treatment group. Cochleograms: normalized distance from apex and treatment group) followed by Holm-Sidak post-hoc test for multiple comparisons. Results are given as mean±SEM and a p value less than or equal to 0.05 considered significant.
# Baseline line audiometry (ABR and DPOAE measures) was performed for each animal 3 days before acoustic trauma was induced. Subsequently, audiometry measures were repeated 24 h and 14 days after acoustic trauma.
# To quantify and compare the difference in treatment effects between groups while taking into account individual baseline and trauma variability, the hearing loss (ABR threshold shift & DPOAE amplitude loss) at D14 relative to baseline, as well as the functional recovery of hearing from 24 h to D14 (ABR threshold shift & DPOAE amplitude loss) were determined for all treatment groups.
# [3] = i.p. daily for 14 days after acoustic trauma, same doses as E4
compound,measurement,setting,value
"CN1C(=O)COc2c(C(=O)NC3CN4CCC3CC4)cc(Cl)cc21 (stereo not drawn) [azasetron HCl, N-(1-azabicyclo[2.2.2]octan-8-yl)-6-chloro-4-methyl-3-oxo-1,4-benzoxazine-8-carboxamide]",effect on calcineurin phosphatase activity,"[1]; CGNs in K25 medium, 10, 100 or 1000 nM for 4 DIV, relative to K25 control (100%)",significantly inhibited
same,change of calcineurin inhibition with increasing concentration,"[1]; CGNs, 4 DIV, 10-1000 nM",increased to different degree with increasing concentrations
same,concentrations at which calcineurin inhibition was significant,"[1]; CGNs, 4 DIV, tested at 10, 100, 1000 nM, p<=0.05 vs K25 control",1000 nM
same,reduction of DPOAE amplitudes loss compared to placebo treatment,"[2]; day 14, i.p. daily for 14 days after acoustic trauma",~ 60%
same,DPOAE amplitude loss from baseline to day 14 compared to placebo,[2]; [3],significantly reduced loss of DPOAE amplitudes
same,recovery of DPOAE amplitudes from 24 h post trauma to day 14 compared to placebo,[2]; [3],significantly improved recovery of DPOAE amplitudes

# — US12702671B2, “Calcineurin inhibitors of the setron family for the treatment of hearing loss” (SENSORION, priority 2015, dated 2026)
